Measured values reported in patent US6022868A, “Substituted azacyclic or azabicyclic compounds” (Novo Nordisk Als, priority 1995, dated 2000).

Key:
[1] = system: substantia nigra; details: chronic nicotine; cited from earlier work
[2] = in vivo; cited from earlier work
[3] = system: dopamine release in the nucleus accumbens; details: cited from earlier work
[4] = system: dopaminergic effects in various behavioral models; details: cited from earlier work
[5] = target: T1, nicotinic acetylcholine receptors (Rattus norvegicus, UniProt P09483+P12390); test: inhibition of specific binding of 3H-methylcarbamylcholine (3H-MCC) to rat cortical receptors; details: for IC50: rat cortical receptors, 3H-MCC 2 nM, 0° C., 60 min; for Oxo/MCC Ratio: selectivity for nicotinic (3H-MCC) over muscarinic (3H-Oxo) receptors, rat cortex
T1 construct: Fresh or frozen rat, brain tissue (hippocampus or cortex) was homogenized in assay buffer; from tissue; host or cells: rat brain tissue (hippocampus or cortex)
T1 sequence (P09483 31-630): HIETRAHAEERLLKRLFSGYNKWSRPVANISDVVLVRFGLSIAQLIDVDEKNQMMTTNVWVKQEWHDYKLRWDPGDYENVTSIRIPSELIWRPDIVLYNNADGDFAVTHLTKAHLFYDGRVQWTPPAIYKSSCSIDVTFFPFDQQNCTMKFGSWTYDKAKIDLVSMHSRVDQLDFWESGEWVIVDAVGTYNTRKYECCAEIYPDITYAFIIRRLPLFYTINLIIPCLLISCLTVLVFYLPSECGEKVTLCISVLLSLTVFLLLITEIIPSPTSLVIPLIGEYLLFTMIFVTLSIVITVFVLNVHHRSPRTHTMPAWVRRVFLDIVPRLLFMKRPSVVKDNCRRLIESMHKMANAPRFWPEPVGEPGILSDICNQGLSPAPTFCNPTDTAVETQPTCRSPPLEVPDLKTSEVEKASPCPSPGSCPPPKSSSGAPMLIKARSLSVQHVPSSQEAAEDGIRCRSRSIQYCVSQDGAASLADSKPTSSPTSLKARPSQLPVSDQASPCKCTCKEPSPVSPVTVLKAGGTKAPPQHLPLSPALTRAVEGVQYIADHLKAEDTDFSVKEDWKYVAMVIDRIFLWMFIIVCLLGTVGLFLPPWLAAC
T1 sequence (P12390 25-500): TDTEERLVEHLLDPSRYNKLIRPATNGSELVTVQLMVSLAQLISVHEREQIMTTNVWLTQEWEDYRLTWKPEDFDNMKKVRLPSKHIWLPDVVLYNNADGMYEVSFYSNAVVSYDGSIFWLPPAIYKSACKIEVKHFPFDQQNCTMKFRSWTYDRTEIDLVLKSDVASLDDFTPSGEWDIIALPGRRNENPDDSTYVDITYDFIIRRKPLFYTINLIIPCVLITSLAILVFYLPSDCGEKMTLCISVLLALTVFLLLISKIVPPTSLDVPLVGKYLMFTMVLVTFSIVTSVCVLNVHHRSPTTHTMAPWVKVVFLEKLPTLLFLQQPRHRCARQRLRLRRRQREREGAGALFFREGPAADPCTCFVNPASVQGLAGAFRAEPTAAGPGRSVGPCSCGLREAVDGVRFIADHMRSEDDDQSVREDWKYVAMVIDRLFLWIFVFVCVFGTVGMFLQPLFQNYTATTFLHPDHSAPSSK
Source text: The pharmacological properties of the compounds of the invention can be illustrated by determining their capability to inhibit the specific binding of ^3 H-methylcarbamylcholine (^3 H-MCC) (Abood and Grassi, Biochem. Pharmacol., Vol. 35, pp. 4199-4202, (1986)).
^3 H-MCC labels the nicotinic receptors in the CNS. The inhibitory effect on ^3 H-MCC binding reflects the affinity for nicotinic acetylcholine receptors.
Fresh or frozen rat, brain tissue (hippocampus or cortex) was homogenized in assay buffer (5OmM Tris--HCI, pH 7.4, 120 mM NaCI, 5 mM KCI, 2 mM CaCI21 1mM MgCI2) and centrifuged for 10 min. at 40.000×g.Pellets were subsequently reconstituted in assay buffer and an appropriate amount of tissue sample was mixed in tubes with ^3 H--methylcarbamylcholine (NEN, NET--951; final concentration 2 nM) and test drug. The tubes were incubated at 0° C. for 60 min. Unbound ligand was separated from bound ligand by vacuum filtration through GF/B filters presoaked in 0.5 % polyethylenimine. Filters were washed three times with 5 ml wash buffer (50mM Tris--HCI, pH 7.4) and transferred to vials. 4 ml scintillation fluid was added and the radioactivity was measured by scintillation counting. Unspecific binding was measured with 10 μM nicotine.
The IC50 values of the test compounds were determined by nonlinear regression analyses (GraphPad InPlot).
Table I illustrates the affinity of the compounds of the present invention for nicotinic and muscarinic receptors as determined by ^3 H-MCC and ^3 H-Oxo binding to rat cortical receptors. The compounds, however, show selective affinity for nicotinic receptors as compared to muscarinic receptors, i.e OXO/MCC >1.

[6] = target: muscarinic acetylcholine receptors; test: inhibition of specific binding of 3H-Oxotremorine-M (3H-Oxo) to rat cortical receptors; details: 3H-Oxo 1.0 nM, 25° C., 30 min
Source text: Furthermore, the pharmacological properties of the compounds of the invention can also be illustrated by determining their capability to inhibit the specific binding of ^3 H-Oxotremorine--M (^3 H-Oxo). Birdsdall N.J.M., Hulme E.C., and Burgen A.S.V. (1980). "The Character of Muscarinic Receptors in Different Regions of the Rat Brain". Proc. Roy. Soc. London (Series B) 207,1.
^3 H-Oxo labels muscarinic receptor in the CNS (with a preference for agonist domains of the receptors). Three different sites are labelled by ^3 H-Oxo. […] Using the present experimental conditions only the high and medium affinity sites are determined.
The inhibitory effects of compounds on ^3 H--Oxo binding reflects the affinity for muscarinic acetylcholine receptors.
All preparations are performed at 0-4° C. unless otherwise indicated. […]
The final pellet is homogenized in 20 mM Hepes pH: 7.4 (100 ml per g of original tissue) and used for binding assay. […] Non-specific binding is determined in triplicate using arecoline (1 ug/ml, final concentration) as the test substance. […] The amount of radioactivity on the filters are determined by conventional liquid scintillation counting. […]
Table I illustrates the affinity of the compounds of the present invention for nicotinic and muscarinic receptors as determined by ^3 H-MCC and ^3 H-Oxo binding to rat cortical receptors. […]

CN1CCCC1c1cccnc1 (stereo not shown) [nicotine]
protection against cell loss in the substantia nigra caused by lesioning [1]: may protect against cell loss in the substantia nigra caused by lesioning
effect in Tourette's syndrome [2]: beneficial effects in Tourette's syndrome
stimulation of dopamine release, nucleus accumbens versus striatum [3]: stimulates dopamine release in the nucleus accumbens more potently than in striatum
potentiation of dopaminergic effects [4]: will potentiate dopaminergic effects in various behavioral models

Cc1cc(/C=C2/CCCN(C)C2)on1.O=C(O)C(=O)O [Compound 1, (Z)-3-(3-Methyl-5-isoxazolyl)methylene-1-methylpiperidine oxalate]
IC50 [5]: 3.05 µM
Oxo/MCC Ratio [5]: 1.7
IC50 [6]: 5.15 µM

Cc1cc(/C=C2/CCCNC2)on1.Cl [Compound 5, (Z)-3-(3-Methyl-5-isoxazolyl)methylenepiperidine hydrochloride]
IC50 [5]: 0.1 µM
Oxo/MCC Ratio [5]: 100
IC50 [6]: 10 µM
